Results taken from BindingDB's records for doi:10.1021/jm00129a003 (Abbott Laboratories, 1989).

Legend:
[1] = target: T1, Gonadotropin-releasing hormone receptor (Rattus norvegicus, UniProt P30969); test: Dissociation constant was determined in vitro using rat pituitary membranes and [125I]-leuprolide as radioligand, at concentration 3.16*10e-6 M
T1 sequence (P30969 whole entry): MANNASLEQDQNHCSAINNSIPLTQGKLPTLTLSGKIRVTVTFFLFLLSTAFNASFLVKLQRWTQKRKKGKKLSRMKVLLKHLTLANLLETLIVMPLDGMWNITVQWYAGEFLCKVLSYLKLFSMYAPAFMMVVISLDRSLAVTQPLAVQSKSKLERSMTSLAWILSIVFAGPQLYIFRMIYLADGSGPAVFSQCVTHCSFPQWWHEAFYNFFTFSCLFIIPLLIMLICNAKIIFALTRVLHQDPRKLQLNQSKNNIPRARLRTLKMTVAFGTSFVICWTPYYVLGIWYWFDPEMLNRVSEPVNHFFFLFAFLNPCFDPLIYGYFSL

[2] = target: T1, Gonadotropin-releasing hormone receptor; test: Dissociation constant was determined in vitro using rat pituitary membranes, at concentration 1.0*10e-5 M

Compound: CC(=O)N1CCN(c2ccc(OC[C@@H]3CO[C@@](Cn4ccnc4)(c4ccc(Cl)cc4Cl)O3)cc2)CC1 [Nizoral]
- Kd [1]: 221 nM
- Kd [2]: 375 nM
